Legend:
Test in all cases: Example B2 herbicidal action, post-emergence, pots in glasshouse, damage score 0-10
Format in all cases: in vivo
Settings in all cases: application post-emergence, rate 1000 g/ha, evaluated after 13 days
[1] = tested on: Echinochloa crus-galli
Method in brief: (§1)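 Evaluation took place 13 days post-spray. Treatment used an acetone/water (50:50), 0.5% Tween 20 formulation applied to 8-day-old potted plants, held at 24/16 °C with 14 h light, 65% humidity and twice-daily watering.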

[2] = tested on: Ipomea hederaceae
Method in brief: as §1

[3] = tested on: Amaranthus retroflexus
Method in brief: as §1

[4] = tested on: Solanum nigrum
Method in brief: as §1

[5] = tested on: Setaria faberi
Method in brief: as §1

| SMILES | ECHCG damage score (10=total damage to plant; 0=no damage to plant) [1] | IPOHE damage score (10=total damage to plant; 0=no damage to plant) [2] | AMARE damage score (10=total damage to plant; 0=no damage to plant) [3] | SOLNI damage score (10=total damage to plant; 0=no damage to plant) [4] | SETFA damage score (10=total damage to plant; 0=no damage to plant) [5] |
| --- | --- | --- | --- | --- | --- |
| CC(C)C(=O)OC1=C(c2ccccc2C(F)(F)F)S(=O)(=O)N(CCCl)c2nccnc21 [Compound C121] | 0 | 1 | 0 | 5 | 2 |
| CCN1c2nccnc2C(O)=C(c2c(Cl)ccc(Cl)c2Cl)S1(=O)=O [Compound D36] | 6 | 10 | 10 | 10 | 2 |
| CC(C)C(=O)OC1=C(c2cc(C(F)(F)F)ccc2Cl)S(=O)(=O)N(C=CCl)c2nccnc21 (mixture of isomers) [Compound C114] | 0 | 6 | 4 | 10 | 2 |
| CCN1c2nccnc2C(O)=C(c2cc(C(F)(F)F)ccc2Cl)S1(=O)=O [Compound D15] | 2 | 9 | 9 | 9 | 4 |
| CCN1c2nccnc2C(O)=C(c2c(Cl)ccc(Cl)c2C(F)(F)F)S1(=O)=O [Compound D26] | 7 | 8 | 8 | 8 | 4 |
| CCSC(=O)OC1=C(c2c(C(F)(F)F)ccc(Cl)c2Cl)S(=O)(=O)N(CC(F)F)c2nccnc21 [Compound C135] | 7 | 8 | 8 | 10 | 10 |
| CC(C)C(=O)OC1=C(c2c(F)cccc2C(F)(F)F)S(=O)(=O)N(CC(F)F)c2nccnc21 [Compound C77] | 9 | 10 | 10 | 10 | 9 |
| CC(C)(C)C(=O)OC1=C(c2cccc(Cl)c2Cl)S(=O)(=O)N(CC(F)F)c2nccnc21 [Compound C100] | 2 | 6 | 4 | 9 | 2 |
| CCN1c2nccnc2C(OC(=O)C(C)C)=C(c2ccccc2[N+](=O)[O-])S1(=O)=O [Compound C67] | 0 | 2 | 0 | 1 | 0 |
| CC(C)(C)C(=O)OC1=C(c2cc(C(F)(F)F)ccc2Cl)S(=O)(=O)N(CC(F)F)c2nccnc21 [Compound C34, 2,2-dimethyl-propionic acid 3-(2-chloro-5-trifluoromethyl-phenyl)-1-(2,2-difluoro-ethyl)-2,2-dioxo-1,2-dihydro-2-λ-6-thia-1,5,8-triaza-naphthalen-4-yl ester] | 7 | 10 | 7 | 9 | 2 |
| CC(C)(C)C(=O)OC1=C(c2cc(-c3cccc(Cl)c3)ccc2Cl)S(=O)(=O)N(CC(F)F)c2nccnc21 [Compound C56] | 0 | 0 | 10 | 2 | 0 |
| CC(C)C(=O)OC1=C(c2cccc(Cl)c2Cl)S(=O)(=O)N(CC(F)F)c2nccnc21 [Compound C102] | 0 | 6 | 1 | 7 | 0 |
| CCSC(=O)OC1=C(c2c(Cl)cccc2C(F)(F)F)S(=O)(=O)N(CC(F)F)c2nccnc21 [Compound C105] | 9 | 8 | 10 | 9 | 9 |
| CCN1c2nccnc2C(OC(=O)C(C)(C)C)=C(c2c(Cl)cccc2C(F)(F)F)S1(=O)=O [Compound C17] | 5 | 7 | 8 | 9 | 4 |
| CC(C)(C)C(=O)OC1=C(c2cccc(C(F)(F)F)c2Cl)S(=O)(=O)N(CC(F)F)c2nccnc21 [Compound C74] | 4 | 7 | 7 | 6 | 3 |
| CCN1c2nccnc2C(O)=C(c2cccc(Cl)c2Cl)S1(=O)=O [Compound D49] | 1 | 6 | 4 | 8 | 1 |
| COCN1c2nccnc2C(OC(=O)C(C)(C)C)=C(c2ccc(Cl)cc2Cl)S1(=O)=O [Compound C11] | 3 | 2 | 1 | 6 | 4 |
| CC(C)(C)C(=O)OC1=C(c2c(F)cccc2C(F)(F)F)S(=O)(=O)N(CC(F)F)c2nccnc21 [Compound C78] | 4 | 3 | 4 | 6 | 3 |
| Cc1ccc(C(F)(F)F)c(C2=C(O)c3nccnc3N(CC(F)F)S2(=O)=O)c1 [Compound D41] | 1 | 9 | 9 | 10 | 2 |
| O=S1(=O)C(c2cccc(C(F)(F)F)c2Cl)=C(O)c2nccnc2N1CC(F)F [Compound D37] | 3 | 10 | 10 | 9 | 5 |
| O=S1(=O)C(c2c(F)ccc(-c3cccc(Cl)c3)c2Cl)=C(O)c2nccnc2N1CC(F)F [Compound D20] | 1 | 6 | 3 | 5 | 1 |
| CCSC(=O)OC1=C(c2c(Cl)ccc(OC)c2F)S(=O)(=O)N(CC(F)F)c2nccnc21 [Compound C145] | 5 | 8 | 0 | 8 | 2 |
